Source: US6906048B2, “N-acetylcolchinol-O-phosphate combination therapies with vascular damaging activity” (AstraZeneca AB, priority 2000, dated 2005)

Experiments:
[1] = tested on: murine adenocarcinoma CaNT tumour; assay: CaNT tumour model, ZD6126 and cisplatin, second study (tumour growth delay); assay type: in vivo; details: study 2, female CBA mice; ZD6126 100 + 100 mg/kg i.p. 2 h apart on days 0, 4, 7, 11; cisplatin 5 mg/kg i.p. days 0 and 7
Method: ZD6126 alone was dosed on days 0, 4, 7 and 11 using a split dose regimen of ZD6126 100 mg/kg i.p., followed by a 2 hour interval, followed by a further 100 mg/kg ZD6126 i.p.. Cisplatin alone was dosed at 5 mg/kg i.p on day 0 and day 7.
(§1) The combination treatment consisted of: • Days 0 and 7: ZD6126 100 mg/kg i.p., followed by a 2 hour interval, followed by a further 100 mg/kg ZD6126 i.p.; cisplatin given 10 minutes before first ZD6126 dose. • Days 3, 7 and 10: ZD6126 100 mg/kg i.p., followed by a 2 hour interval, followed by a further 100 mg/kg ZD6126 i.p..

murine KHT sarcoma [2] = assay: KHT sarcoma tumour model, cisplatin plus ZD6126 (tumour cell survival, excision and colony formation); assay type: in vivo, mice; details: 10 mg/kg cisplatin i.p. alone, assessed 24 hours later
Method: In the murine KHT sarcoma model (Lingyun Li, B. S. et al, Int. J. Radiation Oncology Biol. Phys 42, 899-903, 1998) tumours were treated with either 10 mg/kg cisplatin i.p. alone or 10 mg/kg cisplatin plus ZD6126 (10-100 mg/kg i.p.), cisplatin given 1 hour prior to ZD6126. The effects of the treatments on tumour cell survival was assessed 24 hours later by excising the tumour, disaggregating the cells and determining the number of colonies formed after 10-14 days. Surviving fraction compared to untreated cells was then determined.

[3] = tested on: murine adenocarcinoma CaNT tumour; assay: CaNT tumour model, ZD6126 and cisplatin, first study (tumour growth delay); assay type: in vivo; details: study 1, female CBA mice; ZD6126 100 + 100 mg/kg i.p. 2 h apart on days 0, 2, 4; cisplatin 5 mg/kg i.p. day 0
Method: ZD6126 alone was dosed on days 0, 2 and 4 using a split dose regimen of 100 mg/kg ZD6126, followed by a 2 hour interval, followed by a further 100 mg/kg ZD6126; doses were given intraperitoneally (i.p.).
Cisplatin (David Bull Laboratories) alone was dosed at 5 mg/kg i.p on day 0.
as §1, with “Day 0:” for “Days 0 and 7:”, “i.p; and” for “i.p.;”, “cisplatin 5 mg/kg” for “cisplatin”, “2” for “3, 7”, “4:” for “10:”, “i.p.” for “i.p..”

[4] = tested on: human Calu 6 tumour cells; assay: Calu 6 tumour model, ZD6126 and cisplatin (tumour growth delay); assay type: in vivo; details: athymic nude mice; ZD6126 100 mg/kg i.p. daily x5 (days 0-4 alone, days 1-5 in combination); cisplatin 4 mg/kg i.p. day 0
Method: In a second tumour model, Calu 6, the advantage of combining ZD6126 and cisplatin (cis-Platinum(lI)Diammine Dichloride—Sigma P-4394) was confirmed. Athymic nude mice were implanted subcutaneously with 1×10^6 human Calu 6 tumour cells (obtained from American Type Culture Collection, 10801 University Boulevard, Manassas, Va. 20110-2209 Cat. no. HTB-56) and tumours allowed to grow until they were approximately 9 mm in diameter.
Groups of 10 tumour bearing mice were then treated as follows: • ZD6126 alone was dosed 100 mg/kg i.p. on days 0, 1, 2, 3, 4. • Cisplatin alone was dosed 4 mg/kg i.p. on day 0.
In the combination arm cisplatin 4 mg/kg i.p. was dosed on day 0, and ZD6126 100 mg/kg i.p. was dosed on days 1, 2, 3, 4 and 5.

murine KHT sarcoma [5] = assay: KHT sarcoma tumour model, ZD6126 and radiation (tumour cell survival, excision and colony formation); assay type: in vivo, mice
Method: The murine KHT sarcoma grown in C3H mice was also used to confirm the advantage of combining ZD6126 and radiation. Tumours were treated with either radiation alone (0, 5, 10, 15 or 20 Gy single dose), ZD6126 100 mg/kg i.p., or radiation followed 1 hour later by ZD6126 100 mg/kg i.p.. The effects of either radiation alone, ZD6126 alone or the combination on tumour cell survival was assessed 24 hours later by excising the tumour, disaggregating the cells and determining the number of colonies formed after 10-14 days. Surviving fraction compared to untreated cells was then determined.

[6] = tested on: murine adenocarcinoma CaNT tumour; assay: Cell survival assay, CaNT tumour model: effect of dosage interval; assay type: in vivo, mice; details: two doses of 100 mg/kg i.p. separated by 2, 3 or 4 hours; tumours excised about 18 hours after treatment
Method: (§2) In vivo cell survival was measured using an excision assay (D J Chaplin et al., Anticancer Research 19: 189-196 (1999)).
(§3) Tumours were excised at about 18 hours after treatment, weighed and disaggregated for 1 hour at 37 degrees Celsius in an enzyme cocktail containing 1 mg/ml pronase, 0.5 mg/ml DNAase and 0.5 mg/ml collagenase. Haemocytometer counts of trypan blue-excluding cells were made and viable cells seeded in appropriate concentrations to yield about 50 colonies/dish after in vitro incubation. Heavily irradiated feeder cells (V79 cells) were used at a concentration of 25,000/ml to support the growth of the surviving CaNT cells. The data were calculated as surviving fraction per gram of tumour.
(§4) ZD6126 was administered as a single dose of […] intra-peritoneally (i.p.) in saline with a small amount of 1% sodium carbonate added to aid the dissolution of ZD6126.
ZD6126 was dosed using a split dose regimen of 100 mg/kg ZD6126, followed by a time interval, followed by a further 100 mg/kg ZD6126; doses were given intraperitoneally (i.p.) in saline with a small amount of 1% sodium carbonate added to aid the dissolution of ZD6126. The time intervals used were 1, 2, 3, 4 and 6 hours.

[7] = tested on: murine adenocarcinoma CaNT tumour; assay: Cell survival assay, CaNT tumour model: effect of dosage interval and split dose proportions; assay type: in vivo, mice
Method: as §2, §3
This improved effect varied with the proportion of total dose given in the first and second doses.
as §4
ZD6126 was dosed using split dose regimens of: • i) 25 mg/kg ZD6126, followed by a 2 hour interval, followed by a further 175 mg/kg ZD6126; • ii) 50 mg/kg ZD6126, followed by a 2 hour interval, followed by a further 150 mg/kg ZD6126; • iii) 100 mg/kg ZD6126, followed by a 2 hour interval, followed by a further 100 mg/kg ZD6126; • iv) 150 mg/kg ZD6126, followed by a 2 hour interval, followed by a further 50 mg/kg ZD6126; • v) 175 mg/kg ZD6126, followed by a 2 hour interval, followed by a further 25 mg/kg ZD6126; All doses were given intraperitoneally (i.p.) in saline with a small amount of 1% sodium carbonate added to aid the dissolution of ZD6126.

Row | Compound | Mean growth delay (vs control) - days [1] [days] | cell killing (murine KHT sarcoma [2]) | Mean growth delay (vs control) - days [3] [days] | growth delay (time to reach 2× starting volume) compared to control tumours [4] [days] | enhanced cell killing over controls (murine KHT sarcoma [5]; ZD6126 alone with no radiation) [fold] | Plus ZD6126 % cell survival (murine KHT sarcoma [5]; radiation dose 0 Gy, ZD6126 100 mg/kg i.p., C3H mice, 24 hours later) [%] | Plus ZD6126 % cell survival (murine KHT sarcoma [5]; radiation dose 5 Gy followed 1 hour later by ZD6126 100 mg/kg i.p.) [%] | Plus ZD6126 % cell survival (murine KHT sarcoma [5]; radiation dose 10 Gy followed 1 hour later by ZD6126 100 mg/kg i.p.) [%] | Plus ZD6126 % cell survival (murine KHT sarcoma [5]; radiation dose 15 Gy followed 1 hour later by ZD6126 100 mg/kg i.p.) [%] | surviving fraction of tumour cells, divided doses compared with single dose [6] | split dose proportion giving the best anti-tumour effect ([7]; regimen iii) 100 mg/kg + 100 mg/kg, 2 hour interval) | significance of the greater effect of divided doses over a single dose ([7]; regimens i) 25+175, iii) 100+100 or iv) 150+50 mg/kg, 2 hour interval) | anti-tumour effect, as measured by surviving fraction of tumour cells, divided doses compared with single dose ([7]; total 200 mg/kg i.p. in two doses 2 hours apart, regimens i) to v))
1 | [NH2][Pt]([NH2])([Cl])[Cl] [Cisplatin, cis-Platinum(lI)Diammine Dichloride] | 7.7 | approximately 98% | 2.1 | 6.0 |  |  |  |  |  |  |  |  | 
2 | COc1cc2c(c(OC)c1OC)-c1ccc(OP(=O)(O)O)cc1[C@@H](NC(C)=O)CC2 [ZD6126, (5S)-5-(acetylamino)-9,10,11-trimethoxy-6,7-dihydro-5H-dibenzo[a,c]cyclohepten-3-yl dihydrogen phosphate] |  |  |  |  | 40 | 2.5 | 0.16 | 0.015 | 0.0016 | significantly more effective in this model than a single 200 mg/kg dose | best effect was seen with equal split doses | significant | greater with divided doses of ZD6126 than with a single dose of 200 mg/kg ZD6126
